Experimental data from patent US20100298141A1, “SUBSTITUTED PYRIDINE N-OXIDE HERBICIDES” (E. I. DU PONT DE NEMOURS AND COMPANY, priority 2007, published 2010).

What was measured:
[1] = system: sugarcane; assay: Test F pre-/postemergence test; format: in vivo, Saccharum officinarum; conditions: for Sugarcane plant response rating: postemergence
Description: Seeds of plant species selected from bermudagrass (Cynodon dactylon), Surinam grass (Brachiaria decumbens), large crabgrass (Digitaria sanguinalis), green foxtail (Setaria viridis), goosegrass (Eleusine indica), johnsongrass (Sorghum halepense), kochia (Kochia scoparia), pitted morningglory (Ipomoea lacunosa), purple nutsedge (Cyperus rotundus), common ragweed (Ambrosia elation), mustard (Brassica nigra), guineagrass (Panicum maximum), […] (Paspalum dilatatum), barnyardgrass (Echinochloa crus-galli), southern sandbur (Cenchrus echinatus), common sowthistle (Sonchus oleraceous), prickly […] spinosa), Italian ryegrass (Lolium multiflorum), common purslane (Portulaca oleracea), broadleaf signalgrass (Brachiaria platyphylla), common groundsel (Senecio vulgaris), common chickweed (Stellaria media), Virginia dayflower (Commelina virginica), annual bluegrass (Poa annua), naked crabgrass (Digitaria nuda), […] cochinchinensis), quackgrass (Elytrigia repens), Canada horseweed (Conyza canadensis), field bindweed (Convolvulus arvensis), […] (Bidens bipinnata), common mallow (Malva sylvestris), Russian thistle (Salsola kali), and sugarcane (Saccharum officinarum) were planted and treated preemergence with test chemicals formulated in a non-phytotoxic solvent mixture which included a surfactant. At a different time, sugarcane was treated with postemergence applications of some of the test chemicals formulated in the same manner. Plants were approximately 3- to 4-leaf stage for the postemergence treatments. Treated plants and controls were maintained in a greenhouse for 14 to 21 days, after which time all species were compared to controls and visually evaluated. […] A dash (-) response means no test result.

[2] = system: umbrella sedge; assay: Test B flooded paddy test; format: in vivo, Cyperus difformis; conditions: Flood, 250 g ai/ha, 13 to 15 days; scale 0 to 100, 0 no effect, 100 complete control
Description: (§1) At time of treatment, test pots were flooded to 3 cm above the soil surface, treated by application of test compounds directly to the paddy water, and then maintained at that water depth for the duration of the test. Treated plants and controls were maintained in a greenhouse for 13 to 15 days, after which time all species were compared to controls and visually evaluated. […] A dash (-) response means no test result.

[3] = system: yellow foxtail; assay: Test G preemergence test; format: in vivo, Pennisetum glaucum; conditions: scale 0 to 100
[4] = system: field violet; assay: Test D preemergence test; format: in vivo, Viola arvensis; conditions: scale 0 to 100
Description: Seeds of plant species selected from annual bluegrass (Poa annua), blackgrass (Alopecurus myosuroides), downy bromegrass (Bromus tectorum), field violet (Viola arvensis), green foxtail (Setaria viridis), Italian ryegrass (Lolium multiflorum), littleseed canarygrass (Phalaris minor), spring wheat (Triticum aestivum), wild oat (Avena fatua), […]), winter barley (Hordeum vulgare), and winter wheat (Triticum aestivum) were planted and treated preemergence with test chemicals formulated in a non-phytotoxic solvent mixture which included a surfactant. […] A dash (-) response means no test result.

[5] = system: woolly cupgrass; assay: Test G preemergence test; format: in vivo, Eriochloa villosa; conditions: scale 0 to 100
[6] = system: fall panicum; assay: Test G preemergence test; format: in vivo, Panicum dichotomiflorum; conditions: scale 0 to 100
[7] = system: broadleaf signalgrass; assay: Test G preemergence test; format: in vivo, Brachiaria platyphylla; conditions: scale 0 to 100
[8] = system: Ricefield Bulrush; assay: Test C flooded paddy test; format: in vivo; conditions: Flood
Description: as §1

[9] = system: Redstem; assay: Test C flooded paddy test; format: in vivo; conditions: Flood
Description: as §1

[10] = system: millet foxtail; assay: Test G preemergence test; format: in vivo, Setaria italica; conditions: scale 0 to 100
[11] = system: large crabgrass; assay: Test G preemergence test; format: in vivo, Digitaria sanguinalis; conditions: scale 0 to 100
[12] = system: rice; assay: Test B flooded paddy test; format: in vivo, Oryza sativa; conditions: Flood, 250 g ai/ha, 13 to 15 days; scale 0 to 100, 0 no effect, 100 complete control
Description: as §1

[13] = 250 g ai/ha, scale 0 to 100 (0 no effect, 100 complete control)
[14] = 31 g ai/ha, scale 0 to 100 (0 no effect, 100 complete control)
[15] = 62 g ai/ha, scale 0 to 100, 0 no effect, 100 complete control, 13 to 15 days
[16] = 125 g ai/ha, scale 0 to 100, 0 no effect, 100 complete control, 13 to 15 days

With `Cn1nc(C(F)(F)F)c(C[S+]([O-])c2cccc[n+]2[O-])c1OC(F)F` (stereo not drawn) [Compound 3] the “Plant response rating, Sugarcane” value ([1]; 62 g ai/ha, Preemergence, scale 0 to 100) was 17, the “Sugarcane plant response rating” value ([1]; 62 g ai/ha, scale 0 to 100) was 32 and the “Sugarcane plant response rating” value [1, 13] was 50. The “Plant response rating, Sugarcane” value ([1]; 250 g ai/ha, preemergence, scale 0 to 100) was 50, the “Plant response rating, Umbrella Sedge” value [2] was 100 and the “Plant response rating, Foxtail, Yellow” value ([3]; 31 g ai/ha) was 0. The “Plant response rating, Foxtail, Yellow” value ([3]; 62 g ai/ha) was 75, the “Plant response rating, Foxtail, Yellow” value ([3]; 125 g ai/ha) was 100 and the “Plant response rating, Foxtail, Yellow” value ([3]; 250 g ai/ha) was 100. The “Plant response rating, Field Violet” value ([4]; 31 g ai/ha) was 70, the “Plant response rating, Field Violet” value ([4]; 62 g ai/ha) was 70 and the “Plant response rating, Field Violet” value ([4]; 125 g ai/ha) was 85. For the same compound, the “Plant response rating, Field Violet” value ([4]; 250 g ai/ha) was 100, the “Plant response rating, Cupgrass, Woolly” value ([5]; 31 g ai/ha) was 0 and the “Plant response rating, Cupgrass, Woolly” value ([5]; 62 g ai/ha) was 40. The “Plant response rating, Cupgrass, Woolly” value ([5]; 125 g ai/ha) was 95, the “Plant response rating, Cupgrass, Woolly” value ([5]; 250 g ai/ha) was 100 and the “Plant response rating, Fall Panicum” value ([6]; 31 g ai/ha) was 0. For the same compound, the “Plant response rating, Fall Panicum” value ([6]; 62 g ai/ha) was 40, the “Plant response rating, Fall Panicum” value ([6]; 125 g ai/ha) was 90 and the “Plant response rating, Fall Panicum” value ([6]; 250 g ai/ha) was 95. For the same compound, the “Plant response rating, Signalgrass” value ([7]; 31 g ai/ha) was 0, the “Plant response rating, Signalgrass” value ([7]; 62 g ai/ha) was 45 and the “Plant response rating, Signalgrass” value ([7]; 125 g ai/ha) was 60. For the same compound, the “Plant response rating, Signalgrass” value ([7]; 250 g ai/ha) was 95, the “Plant response rating, Ricefield Bulrush” value [8, 14] was 55 and the “Plant response rating, Ricefield Bulrush” value [8, 15] was 55. For the same compound, the “Plant response rating, Ricefield Bulrush” value [8, 16] was 75, the “Plant response rating, Ricefield Bulrush” value [8, 13] was 80 and the “Plant response rating, Redstem” value [9, 14] was 20. For the same compound, the “Plant response rating, Redstem” value [9, 15] was 40, the “Plant response rating, Redstem” value [9, 16] was 45 and the “Plant response rating, Redstem” value [9, 13] was 85. The “Plant response rating, Foxtail, Millet” value ([10]; 31 g ai/ha) was 0, the “Plant response rating, Foxtail, Millet” value ([10]; 62 g ai/ha) was 80 and the “Plant response rating, Foxtail, Millet” value ([10]; 125 g ai/ha) was 100. For the same compound, the “Plant response rating, Foxtail, Millet” value ([10]; 250 g ai/ha) was 100, the “Plant response rating, Crabgrass, Large” value ([11]; 31 g ai/ha) was 0 and the “Plant response rating, Crabgrass, Large” value ([11]; 62 g ai/ha) was 60. The “Plant response rating, Crabgrass, Large” value ([11]; 125 g ai/ha) was 100, the “Plant response rating, Crabgrass, Large” value ([11]; 250 g ai/ha) was 100 and the “Plant response rating, Rice, Transplanted” value [12] was 60.
